The assay relates to P388 leukemia ip, CD2F1 mice, survival T/C. Kind of assay: NCI In Vivo Anticancer Drug Screen. Data for tumor model P388 Leukemia (intraperitoneal) in CD2F1 (CDF1) mice. As to conditions: endpoint: median survival time, higher = longer survival. An outline of the steps:
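Mice carrying the transplanted tumor received test compound or vehicle. Survival was recorded in each group, and the value is the treated-group measurement divided by that of the vehicle-treated control group.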

Where [1] appears, read: dose: 50.0 mg/kg/injection, schedule: Q01DX009 (ip), vehicle: Klucel (hydroxypropylcellulose) (HPC).
Where [2] appears, read: dose: 100.0 mg/kg/injection, schedule: Q01DX009 (ip), vehicle: Klucel (hydroxypropylcellulose) (HPC).
The mark [3] stands for this setting: dose: 50.0 mg/kg/injection, schedule: Q01DX009 (ip), vehicle: saline.
The mark [4] stands for this setting: dose: 100.0 mg/kg/injection, schedule: Q01DX009 (ip), vehicle: saline.
The mark [5] stands for this setting: dose: 200.0 mg/kg/injection, schedule: Q01DX009 (ip), vehicle: saline.
Setting [6] is: dose: 50.0 mg/kg/injection, schedule: Q01DX009 (ip), vehicle: saline with Tween-80.
Setting [7] is: dose: 100.0 mg/kg/injection, schedule: Q01DX009 (ip), vehicle: saline with Tween-80.
Where [8] appears, read: dose: 50.0 mg/kg/injection, schedule: Q01DX005 (ip), vehicle: Klucel (hydroxypropylcellulose) (HPC).
The mark [9] stands for this setting: dose: 100.0 mg/kg/injection, schedule: Q01DX005 (ip), vehicle: Klucel (hydroxypropylcellulose) (HPC).
[10] abbreviates: dose: 200.0 mg/kg/injection, schedule: Q01DX005 (ip), vehicle: Klucel (hydroxypropylcellulose) (HPC).
Setting [11] is: dose: 12.5 mg/kg/injection, schedule: Q01DX009 (ip), vehicle: saline.
The mark [12] stands for this setting: dose: 25.0 mg/kg/injection, schedule: Q01DX009 (ip), vehicle: saline.
[13] abbreviates: dose: 60.0 mg/kg/injection, schedule: Q01DX005 (ip), vehicle: saline with Tween-80.
The mark [14] stands for this setting: dose: 120.0 mg/kg/injection, schedule: Q01DX005 (ip), vehicle: saline with Tween-80.
[15] abbreviates: dose: 240.0 mg/kg/injection, schedule: Q01DX005 (ip), vehicle: saline with Tween-80.
Where [16] appears, read: dose: 100.0 mg/kg/injection, schedule: Q01DX001 (ip), vehicle: saline with Tween-80.
Where [17] appears, read: dose: 200.0 mg/kg/injection, schedule: Q01DX001 (ip), vehicle: saline with Tween-80.
Where [18] appears, read: dose: 400.0 mg/kg/injection, schedule: Q01DX001 (ip), vehicle: saline with Tween-80.
The mark [19] stands for this setting: dose: 50.0 mg/kg/injection, schedule: Q01DX005 (ip), vehicle: saline with Tween-80.
[20] abbreviates: dose: 100.0 mg/kg/injection, schedule: Q01DX005 (ip), vehicle: saline with Tween-80.
[21] abbreviates: dose: 200.0 mg/kg/injection, schedule: Q01DX005 (ip), vehicle: saline with Tween-80.

“And” between values parts separate entries of the source, which are not always exact repeats. Equal values may be shown once. Inconclusive results and toxic doses are left out.

Turning to `Nc1nc(Cl)c2nc(Cl)n(C3OC(CO)C(O)C3O)c2n1` (stereo not given), the T/C runs as follows: (dose: 50.0 mg/kg/injection, schedule: Q04DX003 (ip), vehicle: saline with Tween-80) 100 % of control; (dose: 100.0 mg/kg/injection, schedule: Q04DX003 (ip), vehicle: saline with Tween-80) 100 % of control; (dose: 200.0 mg/kg/injection, schedule: Q04DX003 (ip), vehicle: saline with Tween-80) 100 % of control; (dose: 400.0 mg/kg/injection, schedule: Q04DX003 (ip), vehicle: saline with Tween-80) 91 % of control.
For the compound `NC(=O)c1ccc[n+](Cc2ccccc2)c1`, the T/C (dose: 12.5 mg/kg/injection, schedule: Q01DX009 (ip), vehicle: Klucel (hydroxypropylcellulose) (HPC)) was 110 % of control; the T/C (dose: 25.0 mg/kg/injection, schedule: Q01DX009 (ip), vehicle: Klucel (hydroxypropylcellulose) (HPC)) is 91 % of control; the T/C under setting [1] was 112 % of control; the T/C under setting [2] is 93 % of control.
With `O=Nc1ccc(Cl)cc1C(=O)c1ccccc1`, the T/C runs as follows: under setting [3], 90 % of control; under setting [4], 104 % of control; under setting [5], 97 % of control.
As to `C=CCN(CC=C)P1(=O)NCCCO1` (stereo not given), the T/C runs as follows: (dose: 50.0 mg/kg/injection, schedule: Q01DX005 (ip), vehicle: saline) 103 % of control; (dose: 100.0 mg/kg/injection, schedule: Q01DX005 (ip), vehicle: saline) 102 % of control; (dose: 200.0 mg/kg/injection, schedule: Q01DX005 (ip), vehicle: saline) 105 % of control.
In the case of `COC(=O)C(Cl)c1ccc2c(c1)OCO2` (stereo not given), the T/C was 100 % of control (dose: 25.0 mg/kg/injection, schedule: Q01DX009 (ip), vehicle: saline with Tween-80); 90 % of control under setting [6]; 95 % of control under setting [7].
For the compound `CCn1ncc(N=O)c1N`, the T/C (dose: 60.0 mg/kg/injection, schedule: Q01DX005 (ip), vehicle: saline) is 104 % of control and 100 % of control; the T/C (dose: 120.0 mg/kg/injection, schedule: Q01DX005 (ip), vehicle: saline) was 92 % of control and 104 % of control; the T/C (dose: 240.0 mg/kg/injection, schedule: Q01DX005 (ip), vehicle: saline) is 90 % of control and 108 % of control.
As to `O=c1[nH]c(=O)c2nc3cc(Cl)ccc3nc2[nH]1`, the T/C under setting [8] was 116 % of control, the T/C under setting [9] was 104 % of control and the T/C under setting [10] was 99 % of control.
Consider `O=C(O)C(O)C(O)C(O)C(=O)O` (stereo not given), for which the T/C is, setting by setting: under setting [3], 101 % of control; under setting [4], 107 % of control; under setting [5], 91 % of control.
`O=C(OCc1ccccc1)C(=O)c1c(O)n(-c2ccccc2)c2ccccc12`: the T/C is 99 % of control (dose: 100.0 mg/kg/injection, schedule: Q04DX002 (ip), vehicle: saline + alcohol); 100 % of control (dose: 200.0 mg/kg/injection, schedule: Q04DX002 (ip), vehicle: saline + alcohol); 96 % of control (dose: 400.0 mg/kg/injection, schedule: Q04DX002 (ip), vehicle: saline + alcohol).
Consider `COc1cc2cc(c1Cl)N(C)C(=O)CC(OC(=O)C(C)N(C)C(=O)C(C)C)C1(C)OC1C(C)C1CC(O)(NC(=O)O1)C(OC)/C=C/C=C(C)C2` (stereo not given), for which the T/C is 105 % of control (dose: 0.1 micrograms/kg/injection, schedule: Q01DX009 (ip), vehicle: saline); 115 % of control (dose: 0.2 micrograms/kg/injection, schedule: Q01DX009 (ip), vehicle: saline); 157 % of control (dose: 3.1 micrograms/kg/injection, schedule: Q01DX009 (ip), vehicle: saline + alcohol); 150 % of control (dose: 3.1 micrograms/kg/injection, schedule: Q01DX009 (ip), vehicle: saline); 167 % of control (dose: 6.3 micrograms/kg/injection, schedule: Q01DX009 (ip), vehicle: saline + alcohol); 161 % of control (dose: 6.3 micrograms/kg/injection, schedule: Q01DX009 (ip), vehicle: saline). Also, the T/C (dose: 12.5 micrograms/kg/injection, schedule: Q01DX009 (ip), vehicle: saline + alcohol) was 150 % of control.
As to `CCNC(=S)N=Nc1c(O)[nH]c2ccccc12`, the T/C runs as follows: under setting [11], 90 % of control; under setting [12], 89 % of control; under setting [3], 88 % of control and 89 % of control.
On to `O=NN(CCCl)C(=O)Nc1ccc(Br)cc1`, for which the T/C (dose: 6.25 mg/kg/injection, schedule: Q01DX009 (ip), vehicle: saline) was 122 % of control; the T/C (dose: 12.5 mg/kg/injection, schedule: Q01DX009 (ip), vehicle: suspension in saline) is 150 % of control; the T/C (dose: 25.0 mg/kg/injection, schedule: Q01DX009 (ip), vehicle: suspension in saline) is 167 % of control; the T/C under setting [3] is 122 % of control; the T/C (dose: 50.0 mg/kg/injection, schedule: Q01DX009 (ip), vehicle: suspension in saline) was 167 % of control.
In the case of `BrCCc1ccccc1Br`, the T/C runs as follows: (dose: 50.0 mg/kg/injection, schedule: Q01DX005 (ip), vehicle: distilled water + alcohol) 105 % of control; (dose: 100.0 mg/kg/injection, schedule: Q01DX005 (ip), vehicle: distilled water + alcohol) 97 % of control; (dose: 200.0 mg/kg/injection, schedule: Q01DX005 (ip), vehicle: distilled water + alcohol) 97 % of control.
As for `CCOC(=O)C(C(=O)OCC)c1ccccn1`, the T/C by setting is: under setting [6], 98 % of control; under setting [7], 107 % of control; (dose: 200.0 mg/kg/injection, schedule: Q01DX009 (ip), vehicle: saline with Tween-80) 108 % of control.
Turning to `CC(C)C(Nc1nncs1)Nc1nncs1`, the T/C reads like this: under setting [13], 103 % of control; under setting [14], 109 % of control; under setting [15], 118 % of control.
For the compound `CC1(C)OCC(C(O)c2nc3ccccc3nc2C(=O)Nc2ccccc2N)O1` (stereo not given), the T/C under setting [16] is 97 % of control, the T/C under setting [17] is 92 % of control and the T/C under setting [18] was 86 % of control.
As to `Nc1cc(=O)c2[nH]cnc2[nH]1`, the T/C by setting is: under setting [11], 103 % of control; under setting [12], 90 % of control; under setting [19], 101 % of control; under setting [3], 98 % of control and 101 % of control; under setting [20], 106 % of control; under setting [4], 103 % of control. Also, the T/C is 107 % of control under setting [21] and 88 % of control under setting [5].
On to `C=C(C#N)C1OC2OC(C)(C)OC2C1OC` (stereo not given), for which the T/C reads like this: under setting [19], 107 % of control; under setting [20], 118 % of control.
For the compound `NNC(=O)c1cc2c3ccccc3ncc2c2ccccc12`, the T/C reads like this: under setting [16], 86 % of control; under setting [17], 95 % of control; under setting [18], 113 % of control.
Take `O=C1NN2CCN=C2c2ncccc21`: the T/C reads like this: under setting [13], 104 % of control; under setting [14], 94 % of control; under setting [15], 87 % of control.
On to `NS(=O)(=O)c1ccc(N=NC2C(=O)N(C(=O)CC(=O)Nc3ccc(C(=O)O)cc3)N=C2c2ccccc2)cc1` (stereo not given), for which the T/C under setting [19] is 97 % of control, the T/C under setting [20] is 92 % of control and the T/C under setting [21] is 90 % of control.
On to `Cc1ccc(S(=O)(=O)OC2CN(C)CC=C2c2ccccc2)cc1` (stereo not given), for which the T/C was 105 % of control (dose: 12.5 mg/kg/injection, schedule: Q01DX005 (ip), vehicle: Klucel (hydroxypropylcellulose) (HPC)); 104 % of control (dose: 25.0 mg/kg/injection, schedule: Q01DX005 (ip), vehicle: Klucel (hydroxypropylcellulose) (HPC)); 99 % of control under setting [8]; 99 % of control under setting [9].
`O=C(N/N=C/c1ccc(O)c(S(=O)(=O)O)c1)C(=O)N/N=C/c1ccc(O)c(S(=O)(=O)O)c1`: the T/C is 101 % of control under setting [1]; 108 % of control under setting [2]; 108 % of control (dose: 200.0 mg/kg/injection, schedule: Q01DX009 (ip), vehicle: Klucel (hydroxypropylcellulose) (HPC)).
On to `CCCC(=O)NN(Cn1c(=S)sc2ccccc21)Cn1c(=S)sc2ccccc21`, for which the T/C is, setting by setting: under setting [8], 101 % of control; under setting [9], 90 % of control; under setting [10], 93 % of control.

Values taken from PubChem BioAssay AID330 (DTP/NCI, 2004).
